According to patent US11673886B2, “5-membered and bicyclic heterocyclic amides as inhibitors of ROCK” (BRISTOL-MYERS SQUIBB COMPANY, priority 2017, dated 2023):
pIC50: −log10 of the molar value.

Test system: ROCK
Assay: not given
Settings: rat, in vivo; cited from earlier work
In the case of `O=S(=O)(c1cccc2cnccc12)N1CCCNCC1` [fasudil], the “infarct size and neurologic deficit” value is given as “reduce both the infarct size and neurologic deficit”.

Test system: ROCK
Assay: not given
Settings: long term treatment; cited from earlier work
In the case of `O=S(=O)(c1cccc2cnccc12)N1CCCNCC1` [fasudil], the coronary constrictive remodeling is given as “promote a regression of coronary constrictive remodeling” and the coronary stenosis is given as “progressively reduce coronary stenosis”.

Target: ROCK2 (Homo sapiens (Human), UniProt O75116)
Sequence (O75116 whole entry, species assumed): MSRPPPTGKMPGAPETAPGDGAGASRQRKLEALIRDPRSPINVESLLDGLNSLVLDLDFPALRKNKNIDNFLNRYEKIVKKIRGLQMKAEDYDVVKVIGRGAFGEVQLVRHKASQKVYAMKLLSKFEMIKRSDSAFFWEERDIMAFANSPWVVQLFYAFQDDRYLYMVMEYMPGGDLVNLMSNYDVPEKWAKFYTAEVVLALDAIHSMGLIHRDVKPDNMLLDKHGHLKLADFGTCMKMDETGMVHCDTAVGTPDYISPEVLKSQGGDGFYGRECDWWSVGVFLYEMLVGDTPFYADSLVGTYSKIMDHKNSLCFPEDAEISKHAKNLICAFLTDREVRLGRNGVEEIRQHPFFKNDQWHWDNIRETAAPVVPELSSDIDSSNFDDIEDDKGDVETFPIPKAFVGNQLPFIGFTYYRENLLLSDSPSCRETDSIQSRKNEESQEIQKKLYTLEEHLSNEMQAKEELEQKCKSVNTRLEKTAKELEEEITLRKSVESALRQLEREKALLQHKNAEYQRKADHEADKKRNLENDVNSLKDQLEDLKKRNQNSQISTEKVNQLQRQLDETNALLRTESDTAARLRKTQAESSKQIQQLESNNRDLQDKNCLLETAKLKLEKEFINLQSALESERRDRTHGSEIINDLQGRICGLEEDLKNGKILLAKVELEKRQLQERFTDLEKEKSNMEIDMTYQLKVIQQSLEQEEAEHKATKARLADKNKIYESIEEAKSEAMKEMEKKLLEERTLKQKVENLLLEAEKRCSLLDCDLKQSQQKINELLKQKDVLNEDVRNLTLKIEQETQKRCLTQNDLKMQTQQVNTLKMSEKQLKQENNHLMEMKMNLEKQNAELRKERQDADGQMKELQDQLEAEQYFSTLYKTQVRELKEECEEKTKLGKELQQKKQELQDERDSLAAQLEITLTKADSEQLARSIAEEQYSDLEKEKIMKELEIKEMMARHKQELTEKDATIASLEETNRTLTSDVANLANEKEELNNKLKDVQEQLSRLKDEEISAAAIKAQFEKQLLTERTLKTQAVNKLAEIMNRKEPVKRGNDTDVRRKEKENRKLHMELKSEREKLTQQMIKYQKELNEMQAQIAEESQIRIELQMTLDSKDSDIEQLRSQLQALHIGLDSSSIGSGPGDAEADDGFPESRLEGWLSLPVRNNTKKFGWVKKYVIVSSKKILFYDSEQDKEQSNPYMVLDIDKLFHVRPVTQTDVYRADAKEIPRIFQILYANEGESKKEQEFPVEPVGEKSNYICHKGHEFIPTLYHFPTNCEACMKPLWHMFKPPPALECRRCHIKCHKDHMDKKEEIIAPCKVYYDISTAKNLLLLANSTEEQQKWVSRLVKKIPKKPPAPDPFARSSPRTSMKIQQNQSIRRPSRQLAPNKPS
Assay: ROCK2 assay (kinase inhibition, FITC peptide substrate, LABCHIP 3000 Reader)
Format: biochemical
Settings: 5 μM ATP, 1.5 μM peptide substrate
Compound “2-cyclopropyl-4- {[(aR)-6-{4-[(1R)- 1-hydroxyethyl]- 2,5- dioxoimidazolidin- 1- yl}spiro[3.3]heptan- 2-yl]oxy}-1,3- thiazole-5- carboxamide [Example 109]” has a pIC50 of 6.48. `NC(=O)c1c(O[C@H]2CC3(C[C@H](NC(=O)c4cnn5cc(OCC(F)F)ccc45)C3)C2)nn2ccccc12` (stereo partly drawn) [Example 122, 2-{[(4s)-6-[6-(2,2-difluoroethoxy)pyrazolo[1,5-a]pyridine-3-amido]spiro[3.3]heptan-2-yl]oxy}pyrazolo[1,5-a]pyridine-3-carboxamide] showed a pIC50 of 6.93. For `CC(C)(O)COc1ccc2c(C(=O)N[C@H]3C[C@]4(C3)C[C@H](Oc3c(C(N)=O)cnn3CCCN)C4)cnn2c1C1CC1` (stereo partly drawn) [Example 28, 1-(3-aminopropyl)-5-({(aR)-6-[7-cyclopropyl-6-(2-hydroxy-2-methylpropoxy)pyra-zolo[1,5-a]pyridine-3-amido]spiro[3.3]hep-tan-2-yl}oxy)-1H-pyrazole-4-carboxamide], the pIC50 was 6.26. In the case of `CCn1cc(C(N)=O)c(O[C@H]2CC3(C[C@H](NC(=O)c4cnn5c(C6CC6)c(OCC(C)(C)O)ccc45)C3)C2)n1` (stereo partly drawn) [Example 19, 3-({(aR)-6-[7-cyclopropyl-6-(2-hydroxy-2-methylpropoxy)pyra-zolo[1,5-a]pyridine-3-amido]spiro[3.3]hep-tan-2-yl}oxy)-1-ethyl-1H-pyrazole-4-carboxamide], the pIC50 was 7.98. For `NC(=O)c1sc(C2CC2)nc1O[C@H]1C[C@@]2(C[C@H](NC(=O)c3cnn4cc(OCC(F)(F)F)ccc34)C2)C1` (stereo partly drawn) [Example 62, 2-cyclopropyl-4-{[(aR)-6-[6-(2,2,2-trifluoroethoxy)pyra-zolo[1,5-a]pyridine-3-amido]spiro[3.3]hep-tan-2-yl]oxy}-1,3-thiazole-5-carboxamide], the pIC50 was 7.94. `[H][C@]1(Oc2c(C(N)=O)sc3ccccc23)C[C@]2(C[C@@H](NC(=O)c3cnn4c(C5CC5)c(OCC(C)(C)O)ccc34)C2)C1` (stereo partly drawn) [Example 2, N-((aR)-6-((2-Carbamoylbenzo[b]thiophen-3-yl)oxy)spiro[3.3]heptan-2-yl)-7-cyclopropyl-6-(2-hydroxy-2-methylpropoxy)pyrazolo[1,5-a]pyridine-3-carboxamide] gave a pIC50 of 7.70. In the case of `Cc1sc2cc(C(N)=O)c(O[C@H]3C[C@@]4(C[C@H](NC(=O)c5nnc(NCC(C)C)s5)C4)C3)nc2c1C` (stereo partly drawn) [Example 162, 5-[(2-methylpropyl)amino]-N-[(4s)-6-({6-carbamoyl-2,3-dimethylthieno[3,2-b]pyridin-5-yl}oxy)spiro[3.3]heptan-2-yl]-1,3,4-thiadiazole-2-carboxamide], the pIC50 was 6.79. Compound `Cc1ccn2nc(O[C@H]3CC4(C[C@H](NC(=O)c5nn(C(F)F)c6cc(OCC(C)(C)O)ccc56)C4)C3)c(C(N)=O)c2c1` (stereo partly drawn) [Example 132, 1-(difluoromethyl)-6-(2-hydroxy-2-methylpropoxy)-N-[(4s)-6-({3-carbamoyl-5-methylpyrazolo[1,5-a]pyridin-2-yl}oxy)spiro[3.3]heptan-2-yl]-1H-indazole-3-carboxamide] has a pIC50 of 6.65. For `COCCn1cc(C(N)=O)c(O[C@H]2CC3(C[C@H](NC(=O)c4cnn5c(C6CC6)c(OCC(C)(C)O)ccc45)C3)C2)n1` (stereo partly drawn) [Example 23, 3-({(aR)-6-[7-cyclopropyl-6-(2-hydroxy-2-methylpropoxy)pyra-zolo[1,5-a]pyridine-3-amido]spiro[3.3]hep-tan-2-yl}oxy)-1-(2-methoxyethyl)-1H-pyrazole-4-carboxamide], the pIC50 was 7.11.
